Reference: patent US20040029965A1, “Formulations for reducing or eliminating toxicity of enviromental hormones containing ursodeoxycholic acid” (priority 2000, published 2004)

Tested on: Ovariectomized female B6C3F1 mice
Assay: Uterus weight changes by bisphenol A (uterine proliferation)
Format: in vivo
Method: Ovariectomized female B6C3F1 mice of 5 weeks old, the average weight of which was 18 to 22 g and had been bred in CRJ, were purchased. They were acclimated under the constant breeding conditions, i.e. the constant temperature of 24±1° C., the humidity of 60±10% and the light and darkness cycle of 12 hours, for one week and then, utilized in the experiment. The animals were supplied with solid feed purchased from Purina and supplied with water ad libitum. After acclimation, test materials dissolved in corn oil were subcutaneously injected once a day for 4 days. The test materials used herein, stock solutions of bisphenol A and UDCA were prepared using ethanol. 2 mg of bisphenol A dissolved in 0.2 ml of corn oil was administered to the mice alone or in combination with UDCA once a day. The administration dose of UDCA was 0.2 or 2.0 mg, and corn oil was administered to the solvent control.
The results are expressed as Mean±Standard Deviation values. ANOVA was performed to evaluate the mean distribution of administered groups. In case that the significance was recognized in ANOVA, the Student's t-test was carried out in the levels of p<0.05 and p<0.01.

For `CC(C)(c1ccc(O)cc1)c1ccc(O)cc1` [Bisphenol A, bisphenol A], the “increase of the weight of uterus” value (2 mg of bisphenol A once a day, versus corn oil control) was “about two-fold increased” and the “Mean weight of uterus ± SD” value (Bisphenol A 2 mg/day s.c. for 4 days, alone) was 13.5 ± 1.75.
